From patent publication US6800637B2, “Antidepressant indolealkyl derivatives of heterocycle-fused benzodioxan methylamines” (Wyeth, priority 2002, dated 2004)

Key:
human 5-HT1A receptors = target: T1, human 5-HT1A receptors (Homo sapiens, UniProt P08908); assay: Displacement of [3H] 8-OHDPAT from 5-HT1A receptor, CHO cells stably transfected with human 5-HT1A receptors; assay type: binding; settings: CHO cells with human 5-HT1A receptors, read-out: 5-HT1A Receptor Affinity KI
T1 construct: expressed in transfected cells; host or cells: CHO cells
T1 sequence (P08908 1-422): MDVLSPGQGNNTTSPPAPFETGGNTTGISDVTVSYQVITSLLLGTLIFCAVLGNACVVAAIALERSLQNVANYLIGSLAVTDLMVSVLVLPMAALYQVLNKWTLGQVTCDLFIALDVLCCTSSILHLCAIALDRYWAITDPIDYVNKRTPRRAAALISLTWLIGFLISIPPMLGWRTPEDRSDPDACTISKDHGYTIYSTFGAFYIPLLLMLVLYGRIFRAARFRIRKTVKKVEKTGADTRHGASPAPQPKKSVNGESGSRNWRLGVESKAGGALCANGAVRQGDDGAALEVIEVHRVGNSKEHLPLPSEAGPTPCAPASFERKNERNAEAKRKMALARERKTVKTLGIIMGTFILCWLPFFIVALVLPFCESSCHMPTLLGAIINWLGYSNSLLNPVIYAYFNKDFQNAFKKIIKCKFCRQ
Source text: High affinity for the serotonin 5-HT1A receptor was established by testing the claimed compound's ability to displace [^3H] 8-OHDPAT (dipropylaminotetralin) from the 5-HT1A serotonin receptor following a modification of the procedure of Hall et al., J. Neurochem. 44, 1685 (1985) which utilizes CHO cells stably transfected with human 5-HT1A receptors.

serotonin transporter = target: T2, serotonin transporter (Rattus norvegicus, UniProt P31652); assay: Displacement of 3H-paroxetine from male rat frontal cortical membranes (serotonin transporter affinity); assay type: binding; settings: read-out: 5-HT Transporter Affinity KI
T2 construct: displace ^3H-paroxetine from male rat frontal cortical membranes; from tissue; host or cells: male rat frontal cortex membranes

[1] = target: T3, cloned human 5HT1A receptors (Homo sapiens, UniProt P08908); assay: 35S-GTPγS binding assay, membranes containing cloned human 5HT1A receptors; assay type: biochemical; settings: for IC50: antagonist potency, reversal of the effects of the standard agonist 8-OHDPAT, read-out: 5-HT1A Function IC50; for Emax: maximum inhibitory effect, read-out: 5-HT1A Function (Imax)
T3 construct: expressed in transfected cells
T3 sequence (P08908 1-422): T1 sequence (P08908 1-422)
Method: Antagonist activity at 5-HT1A receptors was established by using a ^35S-GTPγS binding assay similar to that used by Lazareno and Birdsall (Br. J. Pharmacol. 109: 1120, 1993), in which the test compound's ability to affect the binding of ^35S-GTPγS to membranes containing cloned human 5HT1A receptors was determined. Agonists produce an increase in binding whereas antagonists produce no increase but rather reverse the effects of the standard agonist 8-OHDPAT. The test compound's maximum inhibitory effect is represented as the Imax, while its potency is defined by the IC50.

T2 sequence (P31652 whole entry): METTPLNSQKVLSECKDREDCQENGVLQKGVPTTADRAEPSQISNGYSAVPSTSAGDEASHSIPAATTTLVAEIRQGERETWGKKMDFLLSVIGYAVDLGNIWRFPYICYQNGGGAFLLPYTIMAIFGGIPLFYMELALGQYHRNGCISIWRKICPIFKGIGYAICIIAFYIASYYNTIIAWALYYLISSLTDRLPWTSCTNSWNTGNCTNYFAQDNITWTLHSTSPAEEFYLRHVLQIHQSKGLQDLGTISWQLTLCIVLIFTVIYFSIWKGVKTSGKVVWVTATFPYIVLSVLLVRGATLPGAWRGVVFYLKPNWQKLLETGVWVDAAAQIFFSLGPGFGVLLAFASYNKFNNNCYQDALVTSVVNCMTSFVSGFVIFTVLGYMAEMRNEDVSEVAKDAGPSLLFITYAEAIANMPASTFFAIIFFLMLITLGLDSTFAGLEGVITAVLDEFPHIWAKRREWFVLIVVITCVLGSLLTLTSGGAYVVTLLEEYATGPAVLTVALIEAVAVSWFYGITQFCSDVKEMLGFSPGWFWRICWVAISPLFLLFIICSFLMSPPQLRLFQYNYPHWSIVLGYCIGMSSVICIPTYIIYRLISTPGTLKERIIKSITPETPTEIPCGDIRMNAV

Compound	Ki (human 5-HT1A receptors) [nM]	Ki (serotonin transporter) [nM]	IC50 [1] [nM]	Emax [1] [%]
Cc1nc2ccc3c(c2o1)O[C@@H](CNCCCc1c[nH]c2ccc(F)cc12)CO3 [Example 23, N-[3-(5-Fluoro-1H-indol-3-yl)propyl]-N-(2-methyl-7,8-dihydro-[1,4]dioxino[2,3-g][1,3]benzoxazol-8-ylmethyl)amine]	0.7	1.85	19.3	85.8
Cc1nc2ccc3c(c2o1)OC(CN(C)CCCc1c[nH]c2ccc(F)cc12)CO3 (centres unmarked) [Example 24, N-[3-(5-Fluoro-1H-indol-3-yl)propyl]-N-methyl-N-(2-methyl-7,8-dihydro[1,4]dioxino[2,3-g][1,3]benzoxazol-8-ylmethyl)amine]	4.45	1.4	157	100
CCN(CCCc1c[nH]c2ccc(F)cc12)CC1COc2ccc3nc(C)ccc3c2O1 (centres unmarked) [Example 25, N-Ethyl-N-[3-(5-Fluoro-1H-indol-3-yl)propyl]-N-(8-methyl-2,3-dihydro-[1,4]dioxino[2,3-f]quinolin-2-ylmethyl)amine]	5.47	0.6	43.5	94
Cc1ccc2c3c(ccc2n1)OCC(CNCCCc1cn(C)c2c(F)cc(F)cc12)O3 (centres unmarked) [Example 26, N-[3-(5,7-Difluoro-1-methyl-1H-indol-3-yl)propyl]-N-(8-methyl-2,3-dihydro-[1,4]dioxino[2,3-f]quinolin-2-ylmethyl)amine]	3.26	5.9	180	90.2
Cc1ccc2c3c(ccc2n1)OCC(CN(C)CCCc1cn(C)c2c(F)cc(F)cc12)O3 (centres unmarked) [Example 27, N-[3-(5,7-Difluoro-1-methyl-1H-indol-3-yl)propyl]-N-methyl-N-(8-methyl-2,3-dihydro-[1,4]dioxino[2,3-f]quinolin-2-ylmethyl)amine]	52.9	6.7	341	100
Cc1ccc2c3c(ccc2n1)OCC(CNCCCc1c[nH]c2ccc(C#N)cc12)O3 (centres unmarked) [Example 29, 3-{3-[(8-Methyl-2,3-dihydro-[1,4]dioxino[2,3-f]quinolin-2-ylmethyl)-amino]-propyl}-1H-indole-5-carbonitrile]	1.64	0.9	55.8	94
Cc1nc2ccc3c(c2o1)O[C@@H](CNCCCc1c[nH]c2ccc(C#N)cc12)CO3 [Example 30, 3-{3-[(2-Methyl-7,8-dihydro-[1,4]dioxino[2,3-g][1,3]benzoxazol-8-ylmethyl)amino]-propyl}-1H-indole-5-carbanitrile]	5.35	1.8	68	73.1
Cc1nc2ccc3c(c2o1)O[C@@H](CN(C)CCCc1c[nH]c2ccc(C#N)cc12)CO3 [Example 31, 3-{3-[M thyl-(2-methyl-7,8-dihydro-[1,4]dioxino[2,3[-g][1,3]benzoxazol-8-ylmethyl)-amino]-propyl)}-1H-indole-5-carbonitrile]	35.3	2.4	205	97.7
Cc1ccc2c3c(ccc2n1)OC[C@H](CN(C)CCCc1c[nH]c2ccc(C#N)cc12)O3 [Example 32]	5.46	1	233	100
Cc1ccc2c3c(ccc2n1)OCC(CNCCCn1ccc2ccc(F)cc21)O3 (centres unmarked) [Example 33, [3-(6-Fluoro-indol-1-yl)-propyl]-(8-methyl-2,3-dihydro-[1,4]dioxino[2,3-f]quinolin-2-ylmethyl)amine]	21.2	2.2	200	73.5
Cc1ccc2c3c(ccc2n1)OCC(CN(C)CCCn1ccc2ccc(F)cc21)O3 (centres unmarked) [Example 34, [3-(6-Fluoro-indol-1-yl)-propyl]-methyl-(8-methyl-2,3-dihydro-[1,4]dioxino[2,3-f]quinolin-2-ylmethyl)-amine]	0.29	8.1	193	100
